This test concerns the target SARS-CoV-2 3CLpro (Severe acute respiratory syndrome coronavirus 2, UniProt P0DTD1). The experiment in a line: biochemical. The format is biochemical. Also noted: Replicate_1 / Replicate_2 / mean / mean (LOPAC_screen_w_protease): unit not given here. Conditions: for inhibition at 5 µM: 4 h.
[1] abbreviates: sheet LOPAC_screen_w_protease, LOPAC1280 primary screen at 5 µM, with protease, replicate 1, read-out: Replicate_1.
Setting [2] is: sheet LOPAC_screen_w_protease, LOPAC1280 primary screen at 5 µM, with protease, replicate 2, read-out: Replicate_2.
Where [3] appears, read: LOPAC1280 primary screen with protease, 5 µM compound, replicate 1, read-out: Replicate_1 (LOPAC_screen_w_protease).
Setting [4] is: LOPAC1280 primary screen with protease, 5 µM compound, replicate 2, read-out: Replicate_2 (LOPAC_screen_w_protease).
Where [5] appears, read: LOPAC1280 primary screen with protease, 5 µM compound, mean of two replicates.
Where [6] appears, read: sheet LOPAC_screen_w_protease, LOPAC1280 primary screen at 5 µM, with protease, mean of the two replicates, read-out: mean.
[7] abbreviates: sheet LOPAC_screen_w_protease, primary screen at 5 µM, mean of two replicates, read-out: mean (LOPAC screen with protease).
Where [8] appears, read: sheet LOPAC_screen_w_protease, primary screen at 5 µM, replicate 1, read-out: Replicate_1 (LOPAC screen with protease).
The mark [9] stands for this setting: sheet LOPAC_screen_w_protease, primary screen at 5 µM, replicate 2, read-out: Replicate_2 (LOPAC screen with protease).
The mark [10] stands for this setting: sheet LOPAC_screen_w_protease, primary screen of LOPAC1280 at 5 µM with protease, mean of the two replicates.
Setting [11] is: sheet LOPAC_screen_w_protease, primary screen of LOPAC1280 at 5 µM with protease, replicate 1.
The mark [12] stands for this setting: sheet LOPAC_screen_w_protease, primary screen of LOPAC1280 at 5 µM with protease, replicate 2.
Where [13] appears, read: sheet LOPAC_screen_w_protease, LOPAC1280 at 5 µM, mean of two replicates.
[14] abbreviates: sheet LOPAC_screen_w_protease, LOPAC1280 at 5 µM, replicate 1.
Where [15] appears, read: sheet LOPAC_screen_w_protease, LOPAC1280 at 5 µM, replicate 2.
[16] abbreviates: sheet LOPAC_screen_w_protease, primary screen with protease, compound at 5 µM, mean of two replicates.
[17] abbreviates: sheet LOPAC_screen_w_protease, primary screen with protease, compound at 5 µM, replicate 1.
Setting [18] is: sheet LOPAC_screen_w_protease, primary screen with protease, compound at 5 µM, replicate 2.
The mark [19] stands for this setting: sheet LOPAC_screen_w_protease, primary screen with protease, 5 µM, mean of two replicates.
[20] abbreviates: sheet LOPAC_screen_w_protease, primary screen with protease, 5 µM, replicate 1.
Where [21] appears, read: sheet LOPAC_screen_w_protease, primary screen with protease, 5 µM, replicate 2.
[22] abbreviates: LOPAC1280 primary screen with protease, 5 µM compound, replicate 1.
[23] abbreviates: LOPAC1280 primary screen with protease, 5 µM compound, replicate 2.
[24] abbreviates: LOPAC1280 primary screen with protease, 5 µM compound, mean of the two replicates.
[25] abbreviates: sheet LOPAC_screen_w_protease, primary screen of LOPAC1280 at 5 µM with protease, mean of the two replicates, read-out: mean.
[26] abbreviates: sheet LOPAC_screen_w_protease, primary screen of LOPAC1280 at 5 µM with protease, replicate 1, read-out: Replicate_1.
[27] abbreviates: sheet LOPAC_screen_w_protease, primary screen of LOPAC1280 at 5 µM with protease, replicate 2, read-out: Replicate_2.
Setting [28] is: sheet LOPAC_screen_w_protease, LOPAC1280 at 5 µM, mean of two replicates, read-out: mean.
[29] abbreviates: sheet LOPAC_screen_w_protease, LOPAC1280 at 5 µM, replicate 1, read-out: Replicate_1.
The mark [30] stands for this setting: sheet LOPAC_screen_w_protease, LOPAC1280 at 5 µM, replicate 2, read-out: Replicate_2.

Where a name gives a salt, the structure may show the parent alone. Read-outs that look alike come from different tables or passages of the source.

Where the note is “sheet LOPAC_screen_w_protease, LOPAC1280 primary screen at 5 µM, with protease, mean of two replicates”, `Nc1ncnc2c1ncn2C1CCCO1` (stereo not drawn) [SQ 22536] displayed a mean of -1.0181. In addition, the Replicate_1 (sheet LOPAC_screen_w_protease, LOPAC1280 primary screen at 5 µM, with protease, replicate 1) is listed as 0.976. Where the note is “sheet LOPAC_screen_w_protease, LOPAC1280 primary screen at 5 µM, with protease, replicate 2”, the Replicate_2 is -3.012.

As to `CCCCCCCCCCCCCCSCC(=O)O` [Tetradecylthioacetic acid], the inhibition at 5 µM reads like this: (sheet LOPAC_screen_w_protease, LOPAC1280 primary screen at 5 µM, with protease, mean of two replicates, read-out: mean) -1.74%; under setting [1], -1.66%; under setting [2], -1.82%.

Take `CO[C@@]1(NC(=O)CSCC#N)C(=O)N2C(C(=O)O)=C(CSc3nnnn3C)CS[C@@H]21` [Cefmetazole sodium]: the inhibition at 5 µM runs as follows: under setting [3], 1.13%; under setting [4], 2.27%. Further, the “mean (LOPAC_screen_w_protease)” value under setting [5] worked out at 1.702.

As for `C/C=C(/C)C(=O)O[C@H]1C(C)=C2[C@H]([C@@H]1OC(=O)CCCCCCC)[C@@](C)(OC(C)=O)C[C@H](OC(=O)CCC)[C@@]1(O)[C@H]2OC(=O)[C@@]1(C)O` [Thapsigargin], the inhibition at 5 µM is 0.567% under setting [6], 2.46% under setting [1] and -1.32% under setting [2].

Regarding `Cn1cc(C2=C(c3ccc(Cl)cc3Cl)C(=O)NC2=O)c2ccccc21` [SB 216763], the inhibition at 5 µM under setting [7] worked out at 6.45%, the inhibition at 5 µM under setting [8] is 5.91% and the inhibition at 5 µM under setting [9] turned out to be 6.98%.

On to `Cl.FC(F)(F)c1cc(CO[C@H]2CCCN[C@H]2c2ccccc2)cc(C(F)(F)F)c1` [L-733,060 hydrochloride], for which the mean under setting [10] is 3.689. For the same molecule, the Replicate_1 under setting [11] is recorded as 3.241. This molecule also showed a Replicate_2 under setting [12] of 4.136.

For `CNCCNS(=O)(=O)c1cccc2cnccc12.Cl.Cl` [H-8 dihydrochloride], where the note is “sheet LOPAC_screen_w_protease, primary screen at 5 µM, mean of two replicates”, the “mean (LOPAC screen with protease)” value was 10.4369. For the setting “sheet LOPAC_screen_w_protease, primary screen at 5 µM, replicate 1”, the “Replicate_1 (LOPAC screen with protease)” value is on record as 9.7701. For the same molecule, the “Replicate_2 (LOPAC screen with protease)” value (sheet LOPAC_screen_w_protease, primary screen at 5 µM, replicate 2) was 11.1038.

`C[C@](N)(CCP(=O)(O)O)C(=O)O.Cl` [(S)-MAP4 hydrochloride]: under setting [10], the mean stood at 4.027. Further, the Replicate_1 under setting [11] is given as 4.444. This molecule also displayed a Replicate_2 under setting [12] of 3.611.

With `C[N+](C)(C)CCCCCCCCCC[N+](C)(C)C.[Br-].[Br-]` [Decamethonium dibromide], the mean under setting [13] is reported as 1.23. This molecule also yielded a Replicate_1 under setting [14] of 2.965. Under setting [15], the Replicate_2 was -0.5048.

Under setting [13], `C[C@]12CCC(=O)C=C1CC[C@@H]1[C@@H]2[C@@H](O)C[C@@]2(C)[C@H]1CC[C@]2(O)C(=O)COC(=O)CCC(=O)[O-].[Na+]` [Hydrocortisone 21-hemisuccinate sodium] came in with a mean of 1.066. This molecule yielded a Replicate_1 under setting [14] of 1.635. Under setting [15], this molecule returned a Replicate_2 of 0.4974.

Molecule `CCN(CC)CCOC(=O)c1cc(Cl)c(N)cc1OC.Cl` [SDZ-205,557 hydrochloride] gave a mean under setting [16] of 2.714. Besides, the Replicate_1 under setting [17] is reported as 3.796. The molecule also displayed a Replicate_2 under setting [18] of 1.633.

`Cl.O=c1[nH]oc2c1CCNC2` [THIP hydrochloride] had a mean under setting [19] of -0.005768. Under setting [20], this molecule registered a Replicate_1 of -0.552. The same molecule registered a Replicate_2 under setting [21] of 0.5405.

As for `CCN(CC)CCNC(=O)c1ccc(NC(C)=O)cc1.Cl` [N-Acetylprocainamide hydrochloride], the “mean (LOPAC_screen_w_protease)” value under setting [5] is recorded as 1.374. Under setting [22], the “Replicate_1 (LOPAC_screen_w_protease)” value is reported as 0.6051. In addition, the “Replicate_2 (LOPAC_screen_w_protease)” value under setting [23] worked out at 2.1421.

Under setting [13], `COc1ccccc1N1CCNCC1.Cl` gave a mean of 0.9162. Under setting [14], the Replicate_1 turned out to be 1.248. Further, under setting [15], the Replicate_2 worked out at 0.5839.

In the case of `NCCc1c[nH]c2ccc(C(N)=O)cc12.O=C(O)/C=C\C(=O)O` [5-Carboxamidotryptamine maleate], the “mean (LOPAC_screen_w_protease)” value under setting [24] came to 1.776. In addition, the “Replicate_1 (LOPAC_screen_w_protease)” value under setting [22] came out at 2.928. Moreover, the “Replicate_2 (LOPAC_screen_w_protease)” value under setting [23] is 0.6229.

With `CCCCOC(=O)NS(=O)(=O)c1sc(CC(C)C)cc1-c1ccc(Cn2c(CC)nc3c(C)cc(C)nc32)cc1` [L-162,313], the “mean (LOPAC_screen_w_protease)” value under setting [24] was 1.8394. For the same molecule, the “Replicate_1 (LOPAC_screen_w_protease)” value under setting [22] was found to be 2.383. The “Replicate_2 (LOPAC_screen_w_protease)” value under setting [23] is 1.2958.

As to `NCCc1c[nH]c2ccc(O)cc12` [Serotonin hydrochloride], the inhibition at 5 µM is, setting by setting: under setting [3], 2.37%; under setting [4], 1.09%. Further, the “mean (LOPAC_screen_w_protease)” value under setting [5] came to 1.729.

For `CC12NC(Cc3ccccc31)c1ccccc12.O=C(O)/C=C\C(=O)O` (single isomer, unassigned; (+)) [(+)-MK-801 hydrogen maleate], under setting [16], the mean was found to be 2.6873. The Replicate_1 under setting [17] stood at 4.9061. The same molecule yielded a Replicate_2 under setting [18] of 0.4685.

For the molecule `CCn1c(=O)c2nc(-c3ccccc3)[nH]c2n(CC)c1=O` [1,3-Diethyl-8-phenylxanthine], the inhibition at 5 µM is, setting by setting: under setting [25], 3.47%; under setting [26], 3.04%; under setting [27], 3.9%.

For `O=C(NCC1CCCCN1)c1cc(OCC(F)(F)F)ccc1OCC(F)(F)F` (stereo not drawn) [Flecainide acetate], the inhibition at 5 µM reads like this: under setting [28], 1.01%; under setting [29], 2.84%; under setting [30], -0.814%.

Take `Oc1ccc(Cn2cc[nH]c2=S)cc1` [1-(4-Hydroxybenzyl)imidazole-2-thiol]: the inhibition at 5 µM by setting is: under setting [7], 35.7%; under setting [8], 39.5%; under setting [9], 31.9%.

As for `Br.Cc1o[nH]c(=O)c1CC(N)C(=O)O` (racemic) [(±)-AMPA hydrobromide], the mean (sheet LOPAC_screen_w_protease, primary screen with protease, mean of two replicates) came to 2.246. Where the note is “sheet LOPAC_screen_w_protease, primary screen with protease, replicate 1”, this molecule came in with a Replicate_1 of 3.765. Where the note is “sheet LOPAC_screen_w_protease, primary screen with protease, replicate 2”, this molecule showed a Replicate_2 of 0.7264.

In the case of `COc1ccc(C2CNC(=O)C2)cc1OC1CCCC1` (stereo not drawn) [Rolipram], the inhibition at 5 µM is, setting by setting: (sheet LOPAC_screen_w_protease, primary screen with protease, 5 µM, mean of two replicates, read-out: mean) -0.575%; (sheet LOPAC_screen_w_protease, primary screen with protease, 5 µM, replicate 1, read-out: Replicate_1) -0.0105%; (sheet LOPAC_screen_w_protease, primary screen with protease, 5 µM, replicate 2, read-out: Replicate_2) -1.14%.

In turn, `CC[C@]1(O)C[C@@H]2CN(CCc3c([nH]c4ccccc34)[C@@](C(=O)OC)(c3cc4c(cc3OC)N(C)[C@H]3[C@@](O)(C(=O)OC)[C@H](OC(C)=O)[C@]5(CC)C=CCN6CC[C@]43[C@@H]65)C2)C1.O=S(=O)(O)O` [Vinblastine sulfate salt] displayed a mean under setting [19] of 0.3705. Moreover, the Replicate_1 under setting [20] turned out to be 2.018. Further, the Replicate_2 under setting [21] is reported as -1.277.

`CCN(CC)CC.Nc1ncnc2c1ncn2C1OC2COP(O)(=S)O[C@@H]2[C@@H]1O` (stereo partly drawn) [Rp-cAMPS triethylamine] returned a Replicate_1 of 2.931, a Replicate_2 of 3.042 and a mean of 2.9867.

Take Ro 8-4304: the mean under setting [19] is recorded as 0.161. Under setting [20], this molecule had a Replicate_1 of -1.418. Under setting [21], this molecule returned a Replicate_2 of 1.74.

Turning to `CC(=O)C(C)=O` [2,3-Butanedione], the inhibition at 5 µM was 0.702% under setting [6], 1.88% under setting [1] and -0.473% under setting [2].

As to `CN(C)CC/C=C1/c2ccccc2Sc2ccc(Cl)cc21` [Chlorprothixene hydrochloride], the inhibition at 5 µM amounted to 1.25% under setting [28], 0.326% under setting [29] and 2.17% under setting [30].

Take `CC(CCc1ccccc1)NC(C)C(O)c1ccc(O)cc1` (stereo not drawn) [Nylidrin hydrochloride]: the inhibition at 5 µM stood at 3.76% under setting [25], 4.88% under setting [26] and 2.65% under setting [27].

(Values after article PMC7587356, “High-Throughput Screening for Inhibitors of the SARS-CoV-2 Protease Using a FRET-Biosensor” (Molecules, 2020).)
